Experimental findings from patent publication US4668679A, “Aminoethyl-pyridine and pyrazine derivatives” (Riom Laboratories C.E.R.M., priority 1983, dated 1987) are described below.

The assay concerns Bronchospasm. Put plainly: antibronchoconstrictory activity, technique of Konzett and Rossler (histamine bronchospasm, i.v.). The class given is in vivo, tricoloured guinea pigs. The conditions noted are these: guinea pig; for Duration: duration of action. The method, then:
The antibronchoconstrictory activity was investigated on tricoloured guinea pigs according to the technique of Konzett and Rossler. The animals are anaesthetised with ethylcarbamate and, after tracheotomy, are artifically respirated at constant volume; whereby the intratracheal pressure is recorded continuously. Histamine (5 μg.kg^-1, i.v.) is administered before and at various time-intervals after treatment with the substance to be studied. The activity of the product administered intravenously is evaluated by comparing the amplitudes of the bronchospasms before and after treatment and calculating the percentage variation and the duration of action.

Setting [1] is: Cavia porcellus, iv, dose 5 mg, histamine 5 μg/kg i.v.
Setting [2] is: dose 5 mg, histamine 5 μg/kg i.v.
[3] abbreviates: Cavia porcellus, iv, dose 0.05 mg, histamine 5 μg/kg i.v.
Setting [4] is: dose 0.05 mg, histamine 5 μg/kg i.v.
The mark [5] stands for this setting: Cavia porcellus, iv, dose 0.25 mg, histamine 5 μg/kg i.v.
Where [6] appears, read: dose 0.25 mg, histamine 5 μg/kg i.v.
Setting [7] is: Cavia porcellus, iv, dose 0.1 mg, histamine 5 μg/kg i.v.
[8] abbreviates: dose 0.1 mg, histamine 5 μg/kg i.v.

In general, inhibition in vivo refers to the percentage by which the read-out fell short of the control. The low end stands for a response near the control, the high end for a response far below the control. Consider `COC(CN1CCCC1)c1ccc(C)nc1` (stereo not drawn) [Compound 1], for which the inhibition in vivo at 5 mg under setting [1] was determined as 56.5%. In addition, under setting [2], the Duration is above 60 min.
Under setting [3], `COC(CN1CCN(c2ccc(F)cc2)CC1)c1ccc(C)nc1` (stereo not drawn) [Compound 2] displayed an inhibition in vivo at 0.05 mg of 85%. In addition, the Duration under setting [4] is above 120 min. Moreover, the “antibronchoconstrictory activity (intensity and duration of action), in words” value (from here on “antibronchoconstrictory activity”) (histamine bronchospasm) is given as “excellent activity”.
With `COC(CN1CCOCC1)c1ccc(C)nc1` (stereo not drawn) [Compound 3], the inhibition in vivo at 5 mg under setting [1] is 50%. Further, under setting [2], the Duration was above 15 min.
What is called ED50 is the midpoint of the dose-response relation. A higher ED50 goes with weaker potency. Compound `COC(CN1CCN(c2ccccc2)CC1)c1ccc(C)nc1` (stereo not drawn) [Compound 6, 1-[2-Methoxy-2-(6-methyl-3-pyridyl)-ethyl]-4-phenyl-piperazine] gave an inhibition in vivo at 0.025 mg (Cavia porcellus, iv, dose 0.025 mg, histamine 5 μg/kg i.v.) of 90%. Further, the ED50 (Cavia porcellus, iv, histamine bronchospasm) came out at 1.9 µg/kg. Where the note is “dose 0.025 mg, histamine 5 μg/kg i.v.”, the Duration is above 120 min. The “antibronchoconstrictory activity” value (histamine bronchospasm) is “excellent activity”.
In the case of `COc1ccccc1N1CCN(CC(OC)c2ccc(C)nc2)CC1` (stereo not drawn) [Compound 7, 1-[2-Methoxy-2-(6-methyl-3-pyridyl)-ethyl]-4-(2-methoxy-phenyl)-piperazine], the inhibition in vivo at 0.25 mg under setting [5] was 97%. This compound came in with a Duration under setting [6] above 60 min. Besides, the “antibronchoconstrictory activity” value (histamine bronchospasm) is recorded as “excellent activity”.
In turn, `CCOc1ccccc1N1CCN(CC(OC)c2ccc(C)nc2)CC1` (stereo not drawn) [Compound 8] displayed an inhibition in vivo at 0.1 mg under setting [7] of 95%. Besides, the Duration under setting [8] was above 15 min. Moreover, the “antibronchoconstrictory activity” value (histamine bronchospasm) is listed as “excellent activity”.
Turning to `COC(CN1CCN(c2ccccc2)CC1)c1cnc(C)cn1` (stereo not drawn) [Compound 9], the inhibition in vivo at 0.25 mg under setting [5] amounted to 98%. This compound returned a Duration under setting [6] of 30 min.
In the case of `CCOC(CN1CCN(c2ccccc2)CC1)c1ccc(C)nc1` (stereo not drawn) [Compound 10], the inhibition in vivo at 1 mg (Cavia porcellus, iv, dose 1 mg, histamine 5 μg/kg i.v.) came to 100%. The compound further returned a Duration (dose 1 mg, histamine 5 μg/kg i.v.) above 60 min.
Take `CCOC(CN1CCN(c2ccccc2OC)CC1)c1ccc(C)nc1` (stereo not drawn) [Compound 11]: the inhibition in vivo at 0.25 mg under setting [5] turned out to be 100%. This compound also returned a Duration under setting [6] above 60 min.
Under “Cavia porcellus, iv, dose 0.5 mg, histamine 5 μg/kg i.v.”, `COC(CN1CCN(c2ccc(F)cc2)CC1)c1cnc(C)cn1` (stereo not drawn) [Compound 12] displayed an inhibition in vivo at 0.5 mg of 91%. The compound also gave a Duration (dose 0.5 mg, histamine 5 μg/kg i.v.) above 60 min.
In turn, `COC(CN1CCN(c2ccccc2)CC1)c1nccnc1C.O=C(O)/C=C/C(=O)O` (stereo not drawn) [Compound 14, 1-[2-Methoxy-2-(3-methyl-2-pyrazinyl)-ethyl]-4-phenyl-piperazine fumarate salt] had an inhibition in vivo at 5 mg under setting [1] of 82%. Under setting [2], this compound registered a Duration of 45 min.
Take `COc1ccc(N2CCN(CC(OC)c3ccc(C)nc3)CC2)c(OC)c1` (stereo not drawn) [Compound 15]: under setting [3], the inhibition in vivo at 0.05 mg is 80%. Under setting [4], this compound gave a Duration of 60 min. Besides, the “antibronchoconstrictory activity” value (histamine bronchospasm) is recorded as “excellent activity”.
For the compound `COC(CN1CCN(c2ccccc2C)CC1)c1ccc(C)nc1` (stereo not drawn) [Compound 16], under setting [7], the inhibition in vivo at 0.1 mg came out at 79%. In addition, the Duration under setting [8] is 45 min. Besides, the “antibronchoconstrictory activity” value (histamine bronchospasm) is given as “excellent activity”.
